# Results taken from ChEMBL document CHEMBL3132769, “Fragment growing to retain or alter the selectivity of anchored kinase hinge-binding fragments” (Medchemcomm, 2014).
# Legend:
# [1] = biological target: RAF proto-oncogene serine/threonine-protein kinase (Homo sapiens) (UniProt P04049); experiment: Inhibition of human truncated c-Raf expressed in baculovirus assessed as substrate phosphorylation using fluorescence-labelled peptides as substrate at 0.2 uM after 90 mins by microfluidic peptide phosphorylation assay
# [2] = tested on: Tyrosine-protein kinase ABL1 (Homo sapiens), P00519 [Q252H]; experiment: Inhibition of human truncated ABL Q252H mutant expressed in baculovirus assessed as substrate phosphorylation using fluorescence-labelled peptides as substrate at 420 uM after 90 mins by microfluidic peptide phosphorylation assay
# [3] = tested on: T1, Receptor-type tyrosine-protein kinase FLT3 (Homo sapiens), P36888 [D835Y]; experiment: Inhibition of human FLT3 D835Y mutant catalytic domain expressed in baculovirus assessed as substrate phosphorylation using fluorescence-labelled peptides as substrate at 9 uM after 90 mins by microfluidic peptide phosphorylation assay
# T1 sequence (whole entry): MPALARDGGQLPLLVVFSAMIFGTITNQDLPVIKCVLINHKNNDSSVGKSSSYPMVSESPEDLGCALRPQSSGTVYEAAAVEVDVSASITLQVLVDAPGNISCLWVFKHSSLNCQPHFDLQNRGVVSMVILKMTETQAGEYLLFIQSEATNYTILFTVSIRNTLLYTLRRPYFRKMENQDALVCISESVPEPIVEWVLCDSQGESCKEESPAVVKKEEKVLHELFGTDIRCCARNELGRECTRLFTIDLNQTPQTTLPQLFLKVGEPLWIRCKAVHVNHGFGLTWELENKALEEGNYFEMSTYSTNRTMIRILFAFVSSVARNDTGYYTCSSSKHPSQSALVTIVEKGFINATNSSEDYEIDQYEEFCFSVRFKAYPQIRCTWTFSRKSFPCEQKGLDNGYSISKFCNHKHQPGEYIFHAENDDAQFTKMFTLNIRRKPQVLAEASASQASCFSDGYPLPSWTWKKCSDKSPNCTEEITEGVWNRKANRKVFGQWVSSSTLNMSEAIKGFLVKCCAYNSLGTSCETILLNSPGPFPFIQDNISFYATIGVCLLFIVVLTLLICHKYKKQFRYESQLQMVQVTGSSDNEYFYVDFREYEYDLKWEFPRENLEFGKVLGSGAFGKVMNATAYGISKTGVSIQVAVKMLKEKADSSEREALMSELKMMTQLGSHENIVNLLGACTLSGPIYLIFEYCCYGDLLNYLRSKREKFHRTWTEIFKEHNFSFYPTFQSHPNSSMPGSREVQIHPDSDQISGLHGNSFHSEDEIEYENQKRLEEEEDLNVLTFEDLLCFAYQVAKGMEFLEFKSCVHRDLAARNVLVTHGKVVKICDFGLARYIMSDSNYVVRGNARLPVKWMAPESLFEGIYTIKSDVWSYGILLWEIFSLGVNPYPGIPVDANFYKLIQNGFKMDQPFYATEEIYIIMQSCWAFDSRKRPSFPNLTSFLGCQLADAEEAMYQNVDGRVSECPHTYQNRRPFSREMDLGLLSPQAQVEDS
# [4] = biological target: T2, Aurora kinase C (Homo sapiens) (UniProt Q9UQB9); experiment: Inhibition of human full length AurC expressed in baculovirus assessed as substrate phosphorylation using fluorescence-labelled peptides as substrate at 1000 uM after 90 mins by microfluidic peptide phosphorylation assay
# T2 sequence (whole entry): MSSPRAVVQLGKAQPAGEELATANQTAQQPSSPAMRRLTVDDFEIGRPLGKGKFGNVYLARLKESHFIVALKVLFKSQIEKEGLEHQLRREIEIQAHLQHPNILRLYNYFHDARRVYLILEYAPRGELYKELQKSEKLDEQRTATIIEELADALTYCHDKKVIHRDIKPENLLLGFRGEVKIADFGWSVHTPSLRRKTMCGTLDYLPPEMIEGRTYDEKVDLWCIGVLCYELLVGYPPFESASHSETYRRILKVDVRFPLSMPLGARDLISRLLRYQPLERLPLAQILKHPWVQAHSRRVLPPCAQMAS
# [5] = tested on: Tyrosine-protein kinase ABL1 (Homo sapiens), P00519 [T315I]; experiment: Inhibition of human truncated ABL T315I mutant expressed in baculovirus assessed as substrate phosphorylation using fluorescence-labelled peptides as substrate at 1000 uM after 90 mins by microfluidic peptide phosphorylation assay
# [6] = biological target: T3, Serine/threonine-protein kinase BRSK1 (Homo sapiens) (UniProt Q8TDC3); experiment: Inhibition of human full length BRSK1 expressed in baculovirus assessed as substrate phosphorylation using fluorescence-labelled peptides as substrate at 2 uM after 90 mins by microfluidic peptide phosphorylation assay
# T3 sequence (whole entry): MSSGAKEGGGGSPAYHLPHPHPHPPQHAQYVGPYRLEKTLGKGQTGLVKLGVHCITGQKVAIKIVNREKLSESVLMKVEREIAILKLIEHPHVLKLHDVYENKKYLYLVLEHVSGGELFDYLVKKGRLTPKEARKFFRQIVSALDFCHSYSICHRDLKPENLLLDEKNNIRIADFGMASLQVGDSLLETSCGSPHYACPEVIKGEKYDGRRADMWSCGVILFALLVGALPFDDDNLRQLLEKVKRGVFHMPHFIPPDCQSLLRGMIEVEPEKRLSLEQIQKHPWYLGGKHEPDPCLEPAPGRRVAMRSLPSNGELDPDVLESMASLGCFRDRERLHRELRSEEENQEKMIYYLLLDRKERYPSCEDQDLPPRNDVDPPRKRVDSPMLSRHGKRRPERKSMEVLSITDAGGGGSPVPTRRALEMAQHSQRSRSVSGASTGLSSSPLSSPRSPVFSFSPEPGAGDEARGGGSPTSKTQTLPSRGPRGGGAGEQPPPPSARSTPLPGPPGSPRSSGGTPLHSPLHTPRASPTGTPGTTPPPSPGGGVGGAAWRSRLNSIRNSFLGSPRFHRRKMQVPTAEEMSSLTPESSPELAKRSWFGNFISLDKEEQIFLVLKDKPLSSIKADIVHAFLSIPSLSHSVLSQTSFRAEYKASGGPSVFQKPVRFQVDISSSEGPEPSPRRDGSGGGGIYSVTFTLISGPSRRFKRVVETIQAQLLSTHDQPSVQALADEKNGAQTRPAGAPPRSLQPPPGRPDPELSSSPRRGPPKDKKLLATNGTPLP
# [7] = biological target: MAP kinase-activated protein kinase 2 (Homo sapiens) (UniProt P49137); conditions: 0.1 uM
# Description: Inhibition of human full length MAPKAPK2 expressed in baculovirus assessed as substrate phosphorylation using fluorescence-labelled peptides as substrate at 0.1 uM after 90 mins by microfluidic peptide phosphorylation assay
# [8] = biological target: Tyrosine-protein kinase Fer (Homo sapiens) (UniProt P16591); conditions: 0.1 uM
# Tyrosine-protein kinase Fer (Homo sapiens), sequence (P16591 whole entry, looked up): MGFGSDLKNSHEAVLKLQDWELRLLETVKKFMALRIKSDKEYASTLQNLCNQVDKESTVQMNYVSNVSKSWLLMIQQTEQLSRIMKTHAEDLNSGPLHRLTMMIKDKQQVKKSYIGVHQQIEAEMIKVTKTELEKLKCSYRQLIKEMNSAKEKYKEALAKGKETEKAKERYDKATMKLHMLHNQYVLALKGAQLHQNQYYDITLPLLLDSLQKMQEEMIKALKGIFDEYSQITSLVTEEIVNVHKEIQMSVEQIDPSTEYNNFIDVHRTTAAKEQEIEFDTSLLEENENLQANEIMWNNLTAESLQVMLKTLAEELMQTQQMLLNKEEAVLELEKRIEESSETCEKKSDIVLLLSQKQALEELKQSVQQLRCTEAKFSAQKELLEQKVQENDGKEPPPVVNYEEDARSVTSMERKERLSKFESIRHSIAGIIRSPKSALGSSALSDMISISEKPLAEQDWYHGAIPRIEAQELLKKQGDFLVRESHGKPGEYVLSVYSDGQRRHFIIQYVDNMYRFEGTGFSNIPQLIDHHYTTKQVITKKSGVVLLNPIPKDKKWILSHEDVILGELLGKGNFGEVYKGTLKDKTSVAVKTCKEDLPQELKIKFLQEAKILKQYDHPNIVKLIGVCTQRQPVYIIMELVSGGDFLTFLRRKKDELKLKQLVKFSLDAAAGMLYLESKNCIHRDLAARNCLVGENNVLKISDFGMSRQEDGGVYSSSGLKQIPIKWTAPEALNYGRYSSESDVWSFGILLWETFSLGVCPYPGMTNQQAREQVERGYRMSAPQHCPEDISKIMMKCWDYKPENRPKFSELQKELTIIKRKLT
# Description: Inhibition of human FER catalytic domain expressed in baculovirus assessed as substrate phosphorylation using fluorescence-labelled peptides as substrate at 0.1 uM after 90 mins by microfluidic peptide phosphorylation assay
# MAP kinase-activated protein kinase 2 (Homo sapiens), sequence (P49137 whole entry, looked up): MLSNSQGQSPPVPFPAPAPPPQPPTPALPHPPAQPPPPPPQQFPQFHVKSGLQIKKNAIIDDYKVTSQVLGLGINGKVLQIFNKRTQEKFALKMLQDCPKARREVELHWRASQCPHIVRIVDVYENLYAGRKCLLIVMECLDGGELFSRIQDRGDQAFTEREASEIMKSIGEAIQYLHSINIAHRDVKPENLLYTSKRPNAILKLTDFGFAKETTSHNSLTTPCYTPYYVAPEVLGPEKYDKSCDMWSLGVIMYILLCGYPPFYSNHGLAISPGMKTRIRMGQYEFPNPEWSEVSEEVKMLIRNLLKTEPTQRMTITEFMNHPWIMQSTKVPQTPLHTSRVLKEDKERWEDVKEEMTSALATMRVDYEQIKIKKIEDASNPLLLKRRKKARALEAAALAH
# RAF proto-oncogene serine/threonine-protein kinase (Homo sapiens), sequence (P04049 whole entry, the tested form may be a part): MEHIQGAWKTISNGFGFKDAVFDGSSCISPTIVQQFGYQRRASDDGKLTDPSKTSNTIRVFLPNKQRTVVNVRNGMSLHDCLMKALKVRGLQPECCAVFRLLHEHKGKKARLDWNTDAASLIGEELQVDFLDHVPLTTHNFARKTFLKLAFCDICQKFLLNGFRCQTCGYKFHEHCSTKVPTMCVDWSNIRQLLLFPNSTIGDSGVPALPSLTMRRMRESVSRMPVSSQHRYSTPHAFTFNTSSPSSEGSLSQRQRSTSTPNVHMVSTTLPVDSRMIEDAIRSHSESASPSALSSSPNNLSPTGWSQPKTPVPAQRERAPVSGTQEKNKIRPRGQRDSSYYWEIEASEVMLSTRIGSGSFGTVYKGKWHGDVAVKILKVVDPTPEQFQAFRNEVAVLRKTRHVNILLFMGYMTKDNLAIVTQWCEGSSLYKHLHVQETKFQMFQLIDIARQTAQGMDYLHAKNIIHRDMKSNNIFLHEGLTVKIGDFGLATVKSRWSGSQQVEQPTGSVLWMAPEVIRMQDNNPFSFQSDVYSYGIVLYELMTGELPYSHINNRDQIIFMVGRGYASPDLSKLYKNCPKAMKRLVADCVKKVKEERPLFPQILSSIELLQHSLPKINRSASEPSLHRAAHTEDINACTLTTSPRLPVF
smiles,measurement,setting,value
Clc1ccc(C2(c3ccc(-c4ncnc5[nH]cnc45)cc3)CCNCC2)cc1,inhibition,[1],3.5%
c1nc(N2CCOCC2)c2nc[nH]c2n1,inhibition,[2],64%
NCC1CN(c2ncnc3[nH]c4cnccc4c23)CCO1 (stereo not drawn),inhibition,[3],95%
c1cnc2[nH]ccc2c1,inhibition,[4],96%
same,inhibition,[5],58%
NC1CCN(c2ncnc3[nH]ccc23)CC1,inhibition,[6],14.5%
C[C@H](CN(C)C)Oc1nc(Nc2cc3cccc(Cl)c3cn2)cnc1C#N,inhibition,[7],0%
same,inhibition,[8],0%
